Laboratory results published in patent US8241845B2, “Steroid 5α-reductase” (Health Research Inc., priority 2005, dated 2012).

T1: SRD5AIII (Homo sapiens, UniProt Q9H8P0)
T1 construct: expressed in transfected cells; host or cells: CV-1 (monkey kidney) cells infected with Ad-SRD5AIII; cell-free homogenate
T1 sequence (Q9H8P0 1-318): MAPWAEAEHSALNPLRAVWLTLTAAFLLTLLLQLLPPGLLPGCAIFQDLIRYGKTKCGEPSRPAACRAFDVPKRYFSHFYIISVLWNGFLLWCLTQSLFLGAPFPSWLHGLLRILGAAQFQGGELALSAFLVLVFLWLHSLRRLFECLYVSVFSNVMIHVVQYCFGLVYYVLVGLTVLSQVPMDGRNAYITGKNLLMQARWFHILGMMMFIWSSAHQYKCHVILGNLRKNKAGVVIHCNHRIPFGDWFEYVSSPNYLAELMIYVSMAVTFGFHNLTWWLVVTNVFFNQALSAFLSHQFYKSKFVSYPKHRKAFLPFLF

B1: SRD5AIII: novel steroid 5α-reductase isozyme, 318 amino acids, SEQ ID NO:2 (protein)
chain: T1 sequence (Q9H8P0 1-318)
modifications: human

Assays:
prostate cancer (CaP) [1] = assay: Treatment of men with prostate cancer (CaP) with SRD5A inhibitors; assay type: in vivo, human; conditions: patients at Roswell Park Cancer Institute
SRD5A = conditions: cited from earlier work
prostate cancer (CaP) [2] = conditions: Thompson et al. 2003; cited from earlier work
SRD5AIII = target: T1, SRD5AIII; assay: Recombinant SRD5AIII in vitro assay (conversion of T to DHT, TLC); assay type: biochemical
Experimental: Recombinant SRD5AIII in vitro assays. Ad-SRD5AIII infected CV-1 cells and uninfected CV-1 control cells were prepared and assayed for SRD5AIII using methods of Titus et al. (Titus et al. Clin Cancer Res 2005; 11:4365-4371) and Pratis et al. (Pratis et al. J Steroid Biochem Mol Biol 2000; 75:75-82). All steps prior to incubation were carried out at 4° C. SRD5AIII specific activity was expressed in pmol/mg protein/hr using Ad-SRD5AIII infected CV-1 cells.
Ad-SRD5AIII infected CV-1 cells or uninfected CV-1 cells were homogenized in 0.5 ml ice-cold homogenization buffer (50 mM potassium phosphate [pH 7.4], 0.25M sucrose, 1 mM EDTA, 1 mM dithiothreitol, 1 mM fresh phenylmethylsulfonyl chloride, 1× Complete™ protease inhibitor [Roche, Indianapolis, Ind.] using a PowerGen 125 (Fischer Scientific) for two 10-second bursts and sonicated (Branson Sonifier CD200, SmilthKine) at 20% power for 15 one-second bursts. Final homogenates were centrifuged at 500×g for 1 min to remove particulate. The resulting cell free supernatants were placed on ice and used immediately. Protein concentrations were measured using the procedure of Lowry et al. (Lowry et al. J Biol Chem 1951; 193:265-75).
The buffer for all incubations contained 100 mM Tris-citrate, 0.5 mM dithiothreitol, 0.5 mM NADPH and 1 μCi ^3H-testosterone (New England Nuclear, Boston, Mass.). […] Incubations were performed in total volume 250 μl at pH 7.0 and pH 5.0. […]
The conversion of T to dihydrotestosterone (DHT), androstanedione and androsterone was analyzed using thin layer chromatography (TLC, 33). […] Control incubations were analyzed as described above.
The amount of radioactive DHT, androstanedione and androsterone was calculated as percent total radioactivity (^3H) recovered from the thin layer chromatography lane. […]
Anti-6X-His and anti-X-press antibodies were used to evaluate the expression level of 6X-His and X-press-tagged SRD5AIII in infected CV1 cells. […] However, the molecular weight of the detected band was higher than the expected SRD5AIII molecular weight of about 37 kDa. […]

Molecule	Response in patients, early results (prostate cancer (CaP) [1])	Inhibition of SRD5A activity (SRD5A)	Efficacy as treatment for CaP (prostate cancer (CaP) [2])	pH optimum (SRD5AIII)	SRD5AIII enzyme activity (SRD5AIII; pH 5.0, 1 μM T substrate, n=1)	SRD5AIII specific activity after subtracting background activity (SRD5AIII; pH 7.0, 5 μM T substrate, n=3, Ad-SRD5AIII infected CV-1 cell homogenate)
C[C@]12C=CC(=O)N[C@@H]1CC[C@@H]1[C@@H]2CC[C@]2(C)[C@@H](C(=O)Nc3cc(C(F)(F)F)ccc3C(F)(F)F)CC[C@@H]12 [dutasteride, Dutasteride]	incomplete remission	neither finasteride nor dutasteride inhibits SRD5A activity completely	–	–	–	–
CC(C)(C)NC(=O)[C@H]1CC[C@H]2[C@@H]3CC[C@H]4NC(=O)C=C[C@]4(C)[C@H]3CC[C@]12C [finasteride]	–	neither finasteride nor dutasteride inhibits SRD5A activity completely	Lack of efficacy	–	–	–
B1	–	–	–	~7.0	not detected	15.6 pmol/mg protein/hour
